Laboratory results published in patent EP2435019B1, “DODECA-2E,4E-DIENE AMIDES AND THEIR USE AS MEDICAMENTS AND COSMETICS” (Dr. August Wolff GmbH & Co. KG Arzneimittel, priority 2009, dated 2010).

Key:
Anandamide transport = Anandamide transport (human) cellular functional assay (assay F); type: cell-based; settings: human U-937 cells, 0.1 µM [3H]-Anandamide, 20 min (assay F)
Protocol: Anandamide transport is determined using human U-937 cells as receptor source. [3H]-Anandamide (0.1 Ci/mmol), final concentration 0.1 µM is used as substrate. AM-404 is used as reference compound. Reactions are carried out in KRH buffer (pH 7.4) at 37°C for 20 min. The reaction is terminated by rapid vacuum filtration onto glass fiber filters. Radioactivity trapped onto filters is determined and compared to control values in order to ascertain any interactions of test compound with anandamide uptake (Hiiliard C.J. The movement of N-arachidonylethanolamide (anandamide) across cellular membranes. Chem. Physics Lipids. 2008;108:123-134, with modifications).

[1] = system: Arachidonoylethanolamide Transport (AEAT); experiment: Cellular uptake of [3H]-AEA in U937 cells (assay C); type: cell-based, Human; settings: Homo sapiens, U-937, read-out: EC50 value, AEA re-uptake inhibition
Protocol: 5x10^5 cells were collected and suspended in 500 µL of sterile PBS (Sigma, San Louis, MO, US) using glass silanized tubes. Cells were pre-incubated 10 min at 37°C in presence of test compounds in a concentration range of 10^-8 - 10^-4 M or in presence of the same amount of solvent (control). Then a mixture of 50 nM [^3H]-AEA (60 Ci/mmol) (American Radiolabeled Chemicals, Inc., San Louis, MO, US) and 50 nM of nonradioactive AEA (Tocris Cookson Ltd., Bristol, UK) was added and samples were incubated at 37°C for different times in the range of 1-60 min. The reaction was stopped by rapid filtration over Whatman GF/C filters pre-soaked in 0,25 % BSA. […] The filters-bound radioactivity was measured using a Beckman LS6500 scintillation counter. Results were expressed as % of AEA uptake versus cells treated with solvent and the EC50 and IC50 values were calculated from the sigmoidal curves, which were generated using the GraphPad Prism (GraphPad Software, San Diego, CA, US).

[2] = molecular target: T1, human recombinant Fatty acid amide hydrolase (Homo sapiens, UniProt O00519); experiment: Inhibition of human recombinant FAAH, fluorometric method (assay G); type: biochemical; settings: human recombinant enzyme, AMC-anandamide substrate (assay G)
T1 sequence (O00519 1-579): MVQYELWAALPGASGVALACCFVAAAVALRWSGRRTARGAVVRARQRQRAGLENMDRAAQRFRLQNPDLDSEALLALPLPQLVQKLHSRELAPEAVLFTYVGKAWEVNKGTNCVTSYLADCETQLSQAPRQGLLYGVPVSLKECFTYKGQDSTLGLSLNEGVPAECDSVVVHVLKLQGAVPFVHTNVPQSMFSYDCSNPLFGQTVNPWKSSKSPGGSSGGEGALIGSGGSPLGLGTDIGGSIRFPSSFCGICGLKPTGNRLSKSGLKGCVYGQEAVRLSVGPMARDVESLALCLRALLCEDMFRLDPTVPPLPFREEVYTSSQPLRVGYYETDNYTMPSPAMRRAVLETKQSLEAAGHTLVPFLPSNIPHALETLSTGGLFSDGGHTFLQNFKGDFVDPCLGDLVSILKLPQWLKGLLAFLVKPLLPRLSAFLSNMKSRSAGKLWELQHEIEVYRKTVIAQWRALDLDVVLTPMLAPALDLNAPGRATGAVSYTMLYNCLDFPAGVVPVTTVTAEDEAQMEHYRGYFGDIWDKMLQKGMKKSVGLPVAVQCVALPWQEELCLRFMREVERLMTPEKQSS
Protocol: FAAH activity is measured using the modified method described by Omeir et al., Arachidonoyl ethanolamide-[1,2-14C] as a substrate for anandamide amidase. Life Sci. 1995;56(23-24):1999-2005. Human recombinant enzyme is preincubated with reference compound (methylarachidonlyfluorophosphonate, MAFP) and test compounds for 30 min at room temperature in 50 mM Tris containing 1 mM EDTA and 0.1% fatty acid free BSA (pH 8.0). Substrate (7-amino-4-methyl coumarin-arachidonamide, AMC-anandamide) is then added and incubated for 30 min at room temperature. The reaction is stopped by the addition of 2.5 µl of 10 µM URB597. Released 7-amino-4-methyl coumarin (AMC) is detected by fluorometry in order to ascertain any interactions of test compounds with the FAAH enzyme.

Structure (SMILES)	AEAT inhibition at 1 µM (Anandamide transport)	EC50 [1] [nM]	FAAH inhibition at 1 µM [2]
CCCCCCC/C=C/C=C/C(=O)NCCO [Example 1, (2E,4E)-N-(2-hydroxyethyl)dodeca-2,4-diene amide]	28 % of control	1230 ± 305	9 % of control
CCCCCCC/C=C/C=C/C(=O)NCCc1cccc(OC)c1 [Example 9, (2E,4E)-N-(3-methoxyphenethyl)dodeca-2,4-diene amide]	34 % of control	869 ± 172	16 % of control
